Here are results for 21 compounds from patent publication US9233964B2, “Sulfamide piperazine derivatives as protein tyrosine kinase inhibitors and pharmaceutical use therof” (LEO PHARMA A/S, priority 2011, dated 2016).

The structures appear in SMILES notation.

What all share (assay type): biochemical
Test [1] has as its target T1, JAK3 (Homo sapiens, UniProt P52333).
T1 construct: All four purified enzymes contain only the catalytic domain; His (N); purchased Carna Biosciences, Inc; host or cells: baculovirus expression system
In words: JAK kinase assay (HTRF, phosphorylation of synthetic peptide), JAK3. The note with it: catalytic domain, ATP at Km (2 μM); read-out: JAK3 kinase inhibitory activity (EC50).

Test [2] concerns the target T2, TYK2 (Homo sapiens, UniProt P29597).
T2 construct: JAK1 (aa 850-1154) and TYK2 (aa 871-1187) are expressed with an N-terminally fused GST-tag; GST (N); purchased Carna Biosciences, Inc; host or cells: baculovirus expression system
T2 sequence (P29597 871-1187): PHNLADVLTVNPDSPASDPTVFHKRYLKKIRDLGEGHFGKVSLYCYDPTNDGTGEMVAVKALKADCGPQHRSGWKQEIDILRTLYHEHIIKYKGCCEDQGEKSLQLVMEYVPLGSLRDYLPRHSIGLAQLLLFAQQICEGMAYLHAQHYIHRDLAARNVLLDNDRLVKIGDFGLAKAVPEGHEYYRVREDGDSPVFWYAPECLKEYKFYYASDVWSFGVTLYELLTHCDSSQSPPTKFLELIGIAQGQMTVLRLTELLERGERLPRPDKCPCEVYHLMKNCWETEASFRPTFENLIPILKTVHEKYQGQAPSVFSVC
Description: JAK kinase assay (HTRF, phosphorylation of synthetic peptide), TYK2. Particulars: catalytic domain, ATP at Km (13 μM); read-out: TYK2 kinase inhibitory activity (EC50). The essentials:
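1 µM biotinylated TK peptide at Km ATP in pH 7.0 Hepes, 20-30 min RT. EDTA stop; overnight streptavidin-XL665/cryptate HTRF read.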

The target of test [3] is T3, JAK1 (Homo sapiens, UniProt P23458).
T3 construct: JAK1 (aa 850-1154) and TYK2 (aa 871-1187) are expressed with an N-terminally fused GST-tag; GST (N); purchased Carna Biosciences, Inc; host or cells: baculovirus expression system
T3 sequence (P23458 850-1154): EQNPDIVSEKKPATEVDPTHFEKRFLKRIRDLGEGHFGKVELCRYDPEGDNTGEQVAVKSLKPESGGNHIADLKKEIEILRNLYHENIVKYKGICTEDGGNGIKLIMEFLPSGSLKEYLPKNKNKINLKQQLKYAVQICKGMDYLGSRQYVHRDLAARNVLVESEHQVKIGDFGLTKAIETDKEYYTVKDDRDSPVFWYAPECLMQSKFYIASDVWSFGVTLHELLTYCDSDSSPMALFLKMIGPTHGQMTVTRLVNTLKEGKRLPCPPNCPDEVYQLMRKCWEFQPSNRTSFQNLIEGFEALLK
Description: JAK kinase assay (HTRF, phosphorylation of synthetic peptide), JAK1. Particulars: catalytic domain, ATP at Km (7 μM); read-out: JAK1 kinase inhibitory activity (EC50). The essentials:
(§1)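 Catalytic-domain human JAK1 (GST-tagged, aa 850-1154) or His-tagged JAK2, baculovirus-expressed, phosphorylated 1 µM biotinylated TK peptide at Km ATP (JAK1 7 µM, 10 mM MgCl2, 50 nM SEB; JAK2 4 µM, 5 mM MgCl2) in pH 7.0 Hepes, 20-30 min RT. EDTA stop; overnight streptavidin-XL665/cryptate HTRF read.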
A general note: TR-FRET usually uses a lanthanide donor and a delayed reading to cut background.

Test [4] concerns the target T4, JAK2 (Homo sapiens, UniProt O60674).
T4 construct: All four purified enzymes contain only the catalytic domain; His (N); purchased Carna Biosciences, Inc; host or cells: baculovirus expression system
Description: JAK kinase assay (HTRF, phosphorylation of synthetic peptide), JAK2. The note with it: catalytic domain, ATP at Km (4 μM); read-out: JAK2 kinase inhibitory activity (EC50). The essentials:
as §1

T4 sequence (O60674 849-1124 limits assumed): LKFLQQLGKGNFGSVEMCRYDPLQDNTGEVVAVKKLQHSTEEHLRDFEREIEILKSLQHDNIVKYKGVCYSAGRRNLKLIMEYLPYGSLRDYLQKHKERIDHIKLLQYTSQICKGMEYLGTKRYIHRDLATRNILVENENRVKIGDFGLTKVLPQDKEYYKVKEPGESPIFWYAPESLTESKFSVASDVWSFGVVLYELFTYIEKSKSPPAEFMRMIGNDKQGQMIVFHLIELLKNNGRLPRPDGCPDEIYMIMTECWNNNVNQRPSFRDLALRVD
T1 sequence (P52333 822-1111 limits assumed): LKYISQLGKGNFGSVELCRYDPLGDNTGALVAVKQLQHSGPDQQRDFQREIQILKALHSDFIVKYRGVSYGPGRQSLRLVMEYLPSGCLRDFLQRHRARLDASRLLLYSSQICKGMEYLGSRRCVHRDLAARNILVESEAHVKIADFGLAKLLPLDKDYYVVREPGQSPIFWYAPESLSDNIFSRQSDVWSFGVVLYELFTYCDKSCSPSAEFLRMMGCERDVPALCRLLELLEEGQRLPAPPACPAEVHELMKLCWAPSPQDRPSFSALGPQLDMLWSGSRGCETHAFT

Consider `CN(CC1CCN(S(=O)(=O)CCCC#N)C1)S(=O)(=O)N1CCN(c2ncnc3[nH]ccc23)CC12CC2` (stereo not drawn) [Example 121, N-[[1-(3-cyanopropylsulfonyl)pyrrolidin-3-yl]methyl]-N-methyl-5-(7H-pyrrolo[2,3-d]pyrimidin-4-yl)-5,8-diazaspiro[2.5]octane-8-sulfonamide], for which the EC50 in test [1] is < 100 nM; in test [2] it was 100 to 500 nM; in test [3], < 100 nM; in test [4] it was < 100 nM.

Take `N#CCN(C1COC1)S(=O)(=O)N1CCN(c2ncnc3[nH]ccc23)CC12CC2` [Example 113, N-(cyanomethyl)-N-(oxetan-3-yl)-5-(7H-pyrrolo[2,3-d]pyrimidin-4-yl)-5,8-diazaspiro[2.5]octane-8-sulfonamide]: the EC50 in test [1], in test [2], in test [3] and in test [4] was < 100 nM in each case.

For `O=CNS(=O)(=O)N1CCN(c2ncnc3[nH]ccc23)CC12CC2` [Example 176, N-[[5-(7H-pyrrolo[2,3-d]pyrimidin-4-yl)-5,8-diazaspiro[2.5]octan-8-yl]sulfonyl]formamide], the EC50 was 100 to 500 nM in test [1], > 500 nM in test [2], < 100 nM in test [3] and < 100 nM in test [4].

For `O=S(=O)(N(CCCO)CCc1ccccc1)N1CCN(c2ncnc3[nH]ccc23)CC12CC2` [Example 5, 7-(7H-Pyrrolo[2,3-d]pyrimidin-4-yl)-4,7-diaza-spiro[2.5]octane-4-sulfonic acid (3-hydroxy-propyl)-phenethyl-amide], the EC50 is < 100 nM in test [1], 100 to 500 nM in test [2], < 100 nM in test [3] and < 100 nM in test [4].

Take `CN(C1CN(C(=O)CCO)C1)S(=O)(=O)N1CCN(c2ncnc3[nH]ccc23)CC12CC2` [Example 179, N-[1-(3-hydroxypropanoyl)azetidin-3-yl]-N-methyl-5-(7H-pyrrolo[2,3-d]pyrimidin-4-yl)-5,8-diazaspiro[2.5]octane-8-sulfonamide]: the EC50 in test [1] was 100 to 500 nM; in test [2], 100 to 500 nM; in test [3], < 100 nM; in test [4], < 100 nM.

Take `CC(C)N(C)S(=O)(=O)N1CCN(c2ncnc3[nH]ccc23)CC12CC2` [Example 94, N-isopropyl-N-methyl-5-(7H-pyrrolo[2,3-d]pyrimidin-4-yl)-5,8-diazaspiro[2.5]octane-8-sulfonamide]: the EC50 in test [1] is 100 to 500 nM; in test [2] it was > 500 nM; in test [3], < 100 nM; in test [4] it was < 100 nM.

Consider `N#CCN(C1CCC1)S(=O)(=O)N1CCN(c2ncnc3[nH]ccc23)CC12CC2` [Example 100, N-(cyanomethyl)-N-cyclobutyl-5-(7H-pyrrolo[2,3-d]pyrimidin-4-yl)-5,8-diazaspiro[2.5]octane-8-sulfonamide], for which the EC50 in test [1], in test [2], in test [3] and in test [4] was < 100 nM each time.

Turning to `O=S1(=O)CCC(CNS(=O)(=O)N2CCN(c3ncnc4[nH]ccc34)CC23CC3)CC1` [Int 38], the half-maximal effective concentration (EC50) in test [1] is < 100 nM; in test [2] it was > 500 nM; in test [3], < 100 nM; in test [4], < 100 nM.

On to `N#CCCCN(CCCc1ccccc1)S(=O)(=O)N1CCN(c2ncnc3[nH]ccc23)CC12CC2` [Example 57, 7-(7H-Pyrrolo[2,3-d]pyrimidin-4-yl)-4,7-diaza-spiro[2.5]octane-4-sulfonic acid (3-cyano-propyl)-(3-phenyl-propyl)-amide], for which the EC50 is < 100 nM in test [1], > 500 nM in test [2], < 100 nM in test [3] and < 100 nM in test [4].

For `N#CCN(CC1CCS(=O)(=O)C1)S(=O)(=O)N1CCN(c2ncnc3[nH]ccc23)CC12CC2` (stereo not drawn) [Example 166, N-(cyanomethyl)-N-[(1,1-dioxothiolan-3-yl)methyl]-5-(7H-pyrrolo[2,3-d]pyrimidin-4-yl)-5,8-diazaspiro[2.5]octane-8-sulfonamide], the EC50 in test [1], in test [2], in test [3] and in test [4] was < 100 nM each time.

On to `O=S(=O)(N(CCO)C1CCC1)N1CCN(c2ncnc3[nH]ccc23)CC12CC2` [Example 101, N-cyclobutyl-N-(2-hydroxyethyl)-5-(7H-pyrrolo[2,3-d]pyrimidin-4-yl)-5,8-diazaspiro[2.5]octane-8-sulfonamide], for which the EC50 in test [1], in test [2], in test [3] and in test [4] was < 100 nM each time.

Turning to `CN(CC1CCC1)S(=O)(=O)N1CCN(c2ncnc3[nH]ccc23)CC12CC2` [Example 60, N-(cyclobutylmethyl)-N-methyl-5-(7H-pyrrolo[2,3-d]pyrimidin-4-yl)-5,8-diazaspiro[2.5]octane-8-sulfonamide], the EC50 in test [1], in test [2], in test [3] and in test [4] was < 100 nM each time.

Take `CC(C)(C)OC(=O)NS(=O)(=O)N1CCN(c2ncnc3[nH]ccc23)CC12CC2` [Int 53]: the EC50 was < 100 nM in test [1], > 500 nM in test [2], < 100 nM in test [3] and < 100 nM in test [4].

For the compound `C=C1CCC(CN(C)S(=O)(=O)N2CCN(c3ncnc4[nH]ccc34)CC23CC3)CC1` [Example 87, N-methyl-N-[(4-methylenecyclohexyl)methyl]-5-(7H-pyrrolo[2,3-d]pyrimidin-4-yl)-5,8-diazaspiro[2.5]octane-8-sulfonamide], the 50% effective concentration (EC50) in test [1] was < 100 nM; in test [2] it was 100 to 500 nM; in test [3] it was < 100 nM; in test [4], < 100 nM.

For the compound `CN(C[C@H]1CCCN1C=O)S(=O)(=O)N1CCN(c2ncnc3[nH]ccc23)CC12CC2` [Example 188, N-[[(2R)-1-formylpyrrolidin-2-yl]methyl]-N-methyl-5-(7H-pyrrolo[2,3-d]pyrimidin-4-yl)-5,8-diazaspiro[2.5]octane-8-sulfonamide], the EC50 in test [1] is < 100 nM; in test [2], 100 to 500 nM; in test [3], < 100 nM; in test [4], < 100 nM.

As to `CN(C[C@@H]1CCCN1)S(=O)(=O)N1CCN(c2ncnc3[nH]ccc23)CC12CC2` [Int 52], the EC50 in test [1] is 100 to 500 nM; in test [2], > 500 nM; in test [3], < 100 nM; in test [4] it was < 100 nM.

For the compound `CN(C[C@H]1CCCN1S(C)(=O)=O)S(=O)(=O)N1CCN(c2ncnc3[nH]ccc23)CC12CC2` [Example 181, N-methyl-N-[[(2R)-1-methylsulfonylpyrrolidin-2-yl]methyl]-5-(7H-pyrrolo[2,3-d]pyrimidin-4-yl)-5,8-diazaspiro[2.5]octane-8-sulfonamide], the EC50 in test [1], in test [2], in test [3] and in test [4] was < 100 nM each time.

Take `CN(CC1CCN(C(=O)C(O)CO)C1)S(=O)(=O)N1CCN(c2ncnc3[nH]ccc23)CC12CC2` (stereo not drawn) [Example 127, N-[[1-(2,3-dihydroxypropanoyl)pyrrolidin-3-yl]methyl]-N-methyl-5-(7H-pyrrolo[2,3-d]pyrimidin-4-yl)-5,8-diazaspiro[2.5]octane-8-sulfonamide]: the EC50 is 100 to 500 nM in test [1], > 500 nM in test [2], < 100 nM in test [3] and < 100 nM in test [4].

Turning to `CN(C1CC1)S(=O)(=O)N1CCN(c2ncnc3[nH]ccc23)CC12CC2` [Example 141, N-cyclopropyl-N-methyl-5-(7H-pyrrolo[2,3-d]pyrimidin-4-yl)-5,8-diazaspiro[2.5]octane-8-sulfonamide], the concentration for a half-maximal effect (EC50) is 100 to 500 nM in test [1], 100 to 500 nM in test [2], < 100 nM in test [3] and < 100 nM in test [4].

In the case of `CN(CC(=O)c1ccccc1)S(=O)(=O)N1CCN(c2ncnc3[nH]ccc23)CC12CC2` [Example 12, 7-(7H-Pyrrolo[2,3-d]pyrimidin-4-yl)-4,7-diaza-spiro[2.5]octane-4-sulfonic acid methyl-(2-oxo-2-phenyl-ethyl)-amide], the EC50 in test [1] was 100 to 500 nM; in test [2], > 500 nM; in test [3], < 100 nM; in test [4], < 100 nM.

`CN(CC1CCCN(C(=O)CCO)C1)S(=O)(=O)N1CCN(c2ncnc3[nH]ccc23)CC12CC2` (stereo not drawn) [Example 154, N-[[1-(3-hydroxypropanoyl)-3-piperidyl]methyl]-N-methyl-5-(7H-pyrrolo[2,3-d]pyrimidin-4-yl)-5,8-diazaspiro[2.5]octane-8-sulfonamide]: the EC50 was < 100 nM in test [1], 100 to 500 nM in test [2], < 100 nM in test [3] and < 100 nM in test [4].

A word on the EC50: it is the concentration needed to bring the measured effect to its halfway point.
